# Target: T1, human androgen receptor (Homo sapiens, UniProt P10275)
# T1 construct: expressed in transfected cells; host or cells: Chinese hamster ovary (CHO) cells, cell line CHO-AR-pMMTV-LUC 1G12-A5-CA
# T1 sequence (P10275 1-920): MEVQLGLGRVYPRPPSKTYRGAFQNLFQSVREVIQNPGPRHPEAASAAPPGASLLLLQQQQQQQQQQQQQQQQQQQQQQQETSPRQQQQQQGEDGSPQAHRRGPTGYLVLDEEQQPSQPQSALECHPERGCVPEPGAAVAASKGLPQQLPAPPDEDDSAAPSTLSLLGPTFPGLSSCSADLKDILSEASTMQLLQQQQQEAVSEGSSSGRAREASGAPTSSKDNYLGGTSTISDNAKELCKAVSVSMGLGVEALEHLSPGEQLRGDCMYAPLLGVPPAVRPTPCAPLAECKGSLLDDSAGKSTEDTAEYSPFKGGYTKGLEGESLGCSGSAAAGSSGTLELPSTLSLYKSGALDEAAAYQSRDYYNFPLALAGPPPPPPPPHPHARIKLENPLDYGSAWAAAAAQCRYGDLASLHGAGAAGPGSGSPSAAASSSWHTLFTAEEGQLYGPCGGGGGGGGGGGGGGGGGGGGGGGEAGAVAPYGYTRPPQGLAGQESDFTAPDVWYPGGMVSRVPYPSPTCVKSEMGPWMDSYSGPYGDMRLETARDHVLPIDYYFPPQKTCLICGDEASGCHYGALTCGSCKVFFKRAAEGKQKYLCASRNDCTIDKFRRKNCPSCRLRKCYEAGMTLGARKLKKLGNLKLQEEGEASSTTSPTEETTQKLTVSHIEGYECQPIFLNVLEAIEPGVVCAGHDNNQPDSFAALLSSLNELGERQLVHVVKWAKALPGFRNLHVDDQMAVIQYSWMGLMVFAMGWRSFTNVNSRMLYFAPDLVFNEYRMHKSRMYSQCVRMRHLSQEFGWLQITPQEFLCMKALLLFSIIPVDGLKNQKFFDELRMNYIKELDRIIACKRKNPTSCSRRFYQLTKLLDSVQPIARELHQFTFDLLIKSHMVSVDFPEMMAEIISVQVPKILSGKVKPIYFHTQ
# Experiment: Androgen receptor transactivation assay, androgenic activity in the presence of 0.1 µmol/l onapristone (CHO-AR-pMMTV-LUC cells; Table 5)
# Assay type: cell-based
# Details: for ago efficacy: maximal intrinsic activity in the presence of 100 nM DHT set at 1.00; for ago potency: potency expressed as percentage of DHT activity
# Description: The androgenic activity (EC50, potency, and efficacy) of the compounds in Table 5 was determined in an in vitro bioassay of Chinese hamster ovary (CHO) cells stably transfected with the human androgen receptor expression plasmid and a reporter plasmid in which the MMTV promotor is linked to the luciferase reporter gene. The cell line CHO-AR-pMMTV-LUC 1G12-A5-CA is described in Schoonen et al. (J. Steroid Biochem. Molec. Biol. […]; 74: 213-222). The androgen receptor activity of compounds was determined in the presence of 0.1 µmol/l onapristone. The maximal efficacy in the presence of 100 nmol/l DHT was set as 100%. The potencies are expressed as percentage of DHT activity. Table 5 Androgen receptor activity
smiles,measurement,value
COc1ccc2c(Sc3ccccc3[N+](=O)[O-])cn(Cc3ccncc3)c2c1 [Compound 93],ago efficacy,+ (between 0.50 and 0.80)
same,ago potency,± (between 0.1 % and 1%)
"N#Cc1cccc(Cn2cc(Sc3ccccc3[N+](=O)[O-])c3ccc(C#N)cc32)c1 [Compound 125, 1-(3-Cyano-benzyl)-3-(2-nitro-phenylsulfanyl)-1H-indole-6-carbonitrile]",ago efficacy,++ (≥0.80)
same,ago potency,+ (between 1% and 5%)
"O=C(Nc1ccc2c(Sc3ccccc3[N+](=O)[O-])cn(Cc3cc(F)cc(F)c3)c2c1)C(F)F [Compound 98, N-[1-(3,5-Difluoro-benzyl)-3-(2-nitro-phenylsulfanyl)-1H-indol-6-yl]-2,2-difluoro-acetamide]",ago efficacy,+ (between 0.50 and 0.80)
same,ago potency,++ (>5%)
"COc1ccc2c(Sc3ccccc3[N+](=O)[O-])cn(Cc3cnccn3)c2c1 [Compound 117, 6-Methoxy-3-(2-nitro-phenylsulfanyl)-1-pyrazin-2-ylmethyl-1H-indole]",ago efficacy,+ (between 0.50 and 0.80)
same,ago potency,+ (between 1% and 5%)
"CN(C)C(=O)c1ccc2c(Sc3ccccc3[N+](=O)[O-])cn(Cc3ccccn3)c2c1 [Compound 109, 3-(2-Nitro-phenylsulfanyl)-1-pyridin-2-ylmethyl-1H-indole-6-carboxylic acid dimethylamide]",ago efficacy,++ (≥0.80)
same,ago potency,+ (between 1% and 5%)
"CCC(=O)Nc1ccc2c(Sc3ccccc3[N+](=O)[O-])cn(Cc3ccccn3)c2c1 [Compound 102, N-[3-(2-Nitro-phenylsulfanyl)-1-pyridin-2-ylmethyl-1H-indol-6-yl]-propionamide]",ago efficacy,+ (between 0.50 and 0.80)
same,ago potency,+ (between 1% and 5%)
"COc1ccc2c(Sc3ccccc3[N+](=O)[O-])cn(Cc3ccc(Cl)nc3)c2c1 [Compound 96, 1-(6-Chloro-pyridin-3-ylmethyl)-6-methoxy-3-(2-nitro-phenylsulfanyl)-1H-indole]",ago efficacy,± (between 0.20 and 0.50)
same,ago potency,± (between 0.1 % and 1%)
"O=CNc1ccc2c(Sc3ccccc3[N+](=O)[O-])cn(Cc3cncnc3)c2c1 [Compound 118, N-[3-(2-Nitro-phenylsulfanyl)-1-pyrimidin-5-ylmethyl-1H-indol-6-yl]-formamide]",ago efficacy,+ (between 0.50 and 0.80)
same,ago potency,++ (>5%)
"CS(=O)(=O)Nc1ccc2c(Sc3ccccc3[N+](=O)[O-])cn(Cc3cc(F)cc(F)c3)c2c1 [Compound 106, N-[1-(3,5-Difluoro-benzyl)-3-(2-nitro-phenylsulfanyl)-1H-indol-6-yl]-methanesulfonamide]",ago efficacy,++ (≥0.80)
same,ago potency,+ (between 1% and 5%)
"COc1ccc2c(Sc3ccccc3[N+](=O)[O-])cn(Cc3cc(F)cc(F)c3F)c2c1 [Compound 95, 6-Methoxy-3-(2-nitro-phenylsulfanyl)-1-(2,3,5-trifluoro-benzyl)-1H-indole]",ago efficacy,++ (≥0.80)
same,ago potency,± (between 0.1 % and 1%)
"O=C(CF)Nc1ccc2c(Sc3ccccc3[N+](=O)[O-])cn(Cc3ccccn3)c2c1 [Compound 100, 2-Fluoro-N-[3-(2-nitro-phenylsulfanyl)-1-pyridin-2-ylmethyl-1H-indol-6-yl]-acetamide]",ago efficacy,++ (≥0.80)
same,ago potency,+ (between 1% and 5%)
"Cl.N#Cc1ccc2c(Sc3ccccc3[N+](=O)[O-])cn(Cc3ccccn3)c2c1 [Compound 120, 3-(2-Nitro-phenylsulfanyl)-1-pyridin-2-ylmethyl-1H-indole-6-carbonitrile monohydrochloride]",ago efficacy,++ (≥0.80)
same,ago potency,++ (>5%)
"N#Cc1ccc2c(Sc3ccccc3[N+](=O)[O-])cn(Cc3cccnc3)c2c1 [Compound 121, 3-(2-Nitro-phenylsulfanyl)-1-pyridin-3-ylmethyl-1H-indole-6-carbonitrile]",ago efficacy,++ (≥0.80)
same,ago potency,+ (between 1% and 5%)
"NC(=O)c1ccc2c(Sc3ccccc3[N+](=O)[O-])cn(Cc3ccccn3)c2c1 [Compound 111, 3-(2-Nitro-phenylsulfanyl)-1-pyridin-2-ylmethyl-1H-indole-6-carboxylic acid amide]",ago efficacy,± (between 0.20 and 0.50)
same,ago potency,± (between 0.1 % and 1%)
"CC(=O)Nc1ccc2c(Sc3ccccc3[N+](=O)[O-])cn(Cc3cccnc3)c2c1 [Compound 103, N-[3-(2-Nitro-phenylsulfanyl)-1-pyridin-3-ylmethyl-1H-indol-6-yl]-acetamide]",ago efficacy,+ (between 0.50 and 0.80)
same,ago potency,+ (between 1% and 5%)
"COc1ccc2c(Sc3ccccc3[N+](=O)[O-])cn(Cc3ccncn3)c2c1 [Compound 116, 6-Methoxy-3-(2-nitro-phenylsulfanyl)-1-pyrimidin-4-ylmethyl-1H-indole]",ago efficacy,+ (between 0.50 and 0.80)
same,ago potency,+ (between 1% and 5%)
"N#Cc1ccc2c(Sc3ccccc3[N+](=O)[O-])cn(Cc3ccncc3)c2c1 [Compound 122, 3-(2-Nitro-phenylsulfanyl)-1-pyridin-4-ylmethyl-1H-indole-6-carbonitrile]",ago efficacy,+ (between 0.50 and 0.80)
same,ago potency,+ (between 1% and 5%)
"CNC(=O)c1ccc2c(Sc3ccccc3[N+](=O)[O-])cn(Cc3ccccn3)c2c1 [Compound 110, 3-(2-Nitro-phenylsulfanyl)-1-pyridin-2-ylmethyl-1H-indole-6-carboxylic acid methylamide]",ago efficacy,+ (between 0.50 and 0.80)
same,ago potency,+ (between 1% and 5%)
"O=C(CF)Nc1ccc2c(Sc3ccccc3[N+](=O)[O-])cn(Cc3cc(F)cc(F)c3)c2c1 [Compound 97, N-[1-(3,5-Difluoro-benzyl)-3-(2-nitro-phenylsulfanyl)-1H-indol-6-yl]-2-fluoro-acetamide]",ago efficacy,++ (≥0.80)
same,ago potency,+ (between 1% and 5%)
"O=[N+]([O-])c1ccccc1Sc1cn(Cc2cc(F)cc(F)c2)c2cc(NS(=O)(=O)c3ccsc3)ccc12 [Compound 107, Thiophene-3-sulfonic acid [1-(3,5-difluoro-benzyl)-3-(2-nitro-phenylsulfanyl)-1H-indol-6-yl]-amide]",ago efficacy,++ (≥0.80)
same,ago potency,+ (between 1% and 5%)
"CCC(=O)Nc1ccc2c(Sc3ccccc3[N+](=O)[O-])cn(Cc3cc(F)cc(F)c3)c2c1 [Compound 99, N-[1-(3,5-Difluoro-benzyl)-3-(2-nitro-phenylsulfanyl)-1H-indol-6-yl]-propionamide]",ago efficacy,+ (between 0.50 and 0.80)
same,ago potency,± (between 0.1 % and 1%)
"N#Cc1ccc2c(Sc3ccccc3[N+](=O)[O-])cn(Cc3ccncn3)c2c1 [Compound 124, 3-(2-Nitro-phenylsulfanyl)-1-pyrimidin-4-ylmethyl-1H-indole-6-carbonitrile]",ago efficacy,++ (≥0.80)
same,ago potency,++ (>5%)
"CCC(=O)Nc1ccc2c(Sc3ccccc3[N+](=O)[O-])cn(Cc3cccnc3)c2c1 [Compound 105, N-[3-(2-Nitro-phenylsulfanyl)-pyridin-3-ylmethyl-1H-indol-6-yl]-propionamide]",ago efficacy,± (between 0.20 and 0.50)
same,ago potency,+ (between 1% and 5%)
"O=C(CF)Nc1ccc2c(Sc3ccccc3[N+](=O)[O-])cn(Cc3cccnc3)c2c1 [Compound 104, 2-Fluoro-N-[3-(2-nitro-phenylsulfanyl)-1-pyridin-3-ylmethyl-1H-indol-6-yl]-acetamide]",ago efficacy,- (<0.20)
same,ago potency,+ (between 1% and 5%)
"N#Cc1ccc2c(Sc3ccccc3[N+](=O)[O-])cn(Cc3cncnc3)c2c1 [Compound 123, 3-(2-Nitro-phenylsulfanyl)-1-pyrimidin-5-ylmethyl-1H-indole-6-carbonitrile]",ago efficacy,++ (≥0.80)
same,ago potency,++ (>5%)
"N#Cc1ccc2c(Sc3ccccc3[N+](=O)[O-])cn(Cc3ccccn3)c2c1 [Compound 119, 3-(2-Nitro-phenylsulfanyl)-1-pyridin-2-ylmethyl-1H-indole-6-carbonitrile]",ago efficacy,++ (≥0.80)
same,ago potency,++ (>5%)

# Source: patent publication EP1585727B1, “INDOLES USEFUL IN THE TREATMENT OF ANDROGEN-RECEPTOR RELATED DISEASES” (priority 2002, dated 2004)
